Numbered stars: 1 amine (or outer) side, 2 acyl side, 3 side chain; on linkers, the order of the positions; unused ones are H or OH. Bridge positions count the residues as written; N and C are the ends. Square brackets hold non-standard residues; d marks the D form. Peptide text beside a SMILES is read from it. * marks the point of attachment. ξ: configuration not given here. Phe(4-COOH) = N[C@@H](Cc1ccc(C(=O)O)cc1)C(=O)O; Bip = N[C@@H](Cc1ccc(-c2ccccc2)cc1)C(=O)O; Phe(4-CN) = N#Cc1ccc(C[C@H](N)C(=O)O)cc1; X14 = N[C@H](CN*)C(=O)NCCCCCCCCCCC(=O)O; Phe(3-Me) = Cc1cccc(C[C@H](N)C(=O)O)c1; γGlu = O=C(O)[C@H](CCC(=O)[*:2])N[*:1]; βAsp = O=C(O)[C@H](CC(=O)[*:2])N[*:1]; Val(3-OH) = CC(C)(O)[C@H](N)C(=O)O; Cha = N[C@@H](CC1CCCCC1)C(=O)O; Cit = NC(=O)NCCC[C@H](N)C(=O)O; Thr(3ξ) = CC(O)[C@H](N)C(=O)O; Carboxymethyl = O=C(O)C*; Orn = NCCC[C@H](N)C(=O)O; Aun = NCCCCCCCCCCC(=O)O; Dab = NCC[C@H](N)C(=O)O; Nva = CCC[C@H](N)C(=O)O; Dap = NC[C@H](N)C(=O)O; AEEA = NCCOCCOCC(=O)O
target: T1, PD-1/PD-L1 interaction (PE-labeled human PD-L1-Ig binding to Jurkat cell line over-expressing human PD-1) (Homo sapiens, UniProt Q15116); test: Jurkat-PD-1 Cell Binding High-Content Screening Assay (CBA); assay type: cell-based; conditions: Jurkat cell line over-expressing human PD-1; PE-labeled PD-L1-Ig 20 nM final; read-out: Jurkat hPD1-PDL1 IC50
T1 construct: expressed in transfected cells; host or cells: Jurkat
Summary of the method: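 Binding of fluorescent PD-L1-Ig (20 nM final) to Jurkat-PD-1 cells was measured by automated imaging after 1 h, following a 2 h compound pre-treatment at 37° C.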

T1 sequence (Q15116 25-288): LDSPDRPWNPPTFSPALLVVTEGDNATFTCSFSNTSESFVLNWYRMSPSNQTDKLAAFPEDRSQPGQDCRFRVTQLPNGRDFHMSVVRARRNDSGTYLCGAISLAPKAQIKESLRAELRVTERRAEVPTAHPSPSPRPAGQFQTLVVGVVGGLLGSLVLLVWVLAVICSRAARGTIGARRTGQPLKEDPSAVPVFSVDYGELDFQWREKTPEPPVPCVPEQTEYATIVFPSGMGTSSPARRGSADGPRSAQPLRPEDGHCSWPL

Structure (SMILES) | IC50 [nM]
Cc1cccc(C[C@@H]2NC(=O)[C@H](CC(=O)O)NC(=O)[C@H](Cc3ccc(OCC(=O)O)cc3)NC(=O)[C@H](CN)NC(=O)CSC[C@@H](C(=O)NC[C@@H](N)C(=O)NCCCCCCCCCCC(=O)O)NC(=O)[C@H]([C@@H](C)O)NC(=O)[C@H](C(C)C)NC(=O)[C@H](CC3CCCCC3)NC(=O)[C@H](CCN)NC(=O)[C@@H](CC(C)C)NC(=O)[C@H](CCCN)NC(=O)[C@H](CCCNC(N)=O)NC(=O)[C@H](Cc3ccc(-c4ccccc4)cc3)NC(=O)[C@H](C(C)C)NC2=O)c1 [Compound 2622] ({CH2CO}-[Dap]Y(Carboxymethyl)D[Phe(3-Me)]V[Bip][Cit][Orn][dL][Dab][Cha]VTC-X14; thioether N-14) | 30.6
CCC[C@@H]1NC(=O)CSC[C@@H](C(=O)N[C@@H](CCN)C(=O)NCCCCCCCCCCC(=O)O)NC(=O)[C@H](CO)NC(=O)[C@H](C(C)(C)O)NC(=O)[C@H](CC2CCCCC2)NC(=O)[C@H](CCN)NC(=O)[C@@H](CC(C)C)NC(=O)[C@H](CCCN)NC(=O)[C@H](Cc2ccc(OCC(=O)O)cc2)NC(=O)[C@H](Cc2ccc(-c3ccccc3)cc2)NC(=O)[C@H](Cc2ccc(OCC(=O)O)cc2)NC(=O)[C@H](Cc2cccc(C)c2)NC(=O)[C@H](CC(=O)O)NC(=O)[C@H](Cc2ccc(C(=O)O)cc2)NC1=O [Compound 2178] ({CH2CO}-[Nva][Phe(4-COOH)]D[Phe(3-Me)]Y(Carboxymethyl)[Bip]Y(Carboxymethyl)[Orn][dL][Dab][Cha][Val(3-OH)]SC[Dab][Aun]-OH; thioether N-14) | 6.4

The next lines start with the values.

IC50 [nM] | Structure (SMILES)
8.4 | Cc1cccc(C[C@@H]2NC(=O)[C@H](CC(=O)O)NC(=O)[C@H](Cc3ccc(OCC(=O)O)cc3)NC(=O)[C@H](CN)NC(=O)CSC[C@@H](C(=O)N[C@@H](C)C(=O)N[C@@H](CC(=O)NCCOCCOCC(=O)N[C@@H](CCC(=O)NCCOCCOCC(=O)NCCCCCCCCCCC(=O)O)C(=O)O)C(=O)O)NC(=O)[C@H]([C@@H](C)O)NC(=O)[C@H](C(C)C)NC(=O)[C@H](CC3CCCCC3)NC(=O)[C@H](CCN)NC(=O)[C@@H](CC(C)C)NC(=O)[C@H](CCCN)NC(=O)[C@H](CCCNC(N)=O)NC(=O)[C@H](Cc3ccc(-c4ccccc4)cc3)NC(=O)[C@H](C(C)C)NC2=O)c1 [Compound 1018] ({CH2CO}-[Dap]Y(Carboxymethyl)D[Phe(3-Me)]V[Bip][Cit][Orn][dL][Dab][Cha]VTCA[βAsp][AEEA][γGlu][AEEA][Aun]-OH; thioether N-14)
6.3 | Cc1cccc(C[C@@H]2NC(=O)[C@H](CC(=O)O)NC(=O)[C@H](Cc3ccc(C#N)cc3)NC(=O)[C@H](C(C)O)NC(=O)CSC[C@@H](C(=O)N[C@@H](CCN)C(=O)NCCOCCOCC(=O)NCCOCCOCC(=O)NCCCCCCCCCCC(=O)O)NC(=O)[C@H](Cc3cnc[nH]3)NC(=O)[C@H](C(C)O)NC(=O)[C@H](CC3CCCCC3)NC(=O)[C@H](CCN)NC(=O)[C@@H](CC(C)C)NC(=O)[C@H](CCCN)NC(=O)[C@H](Cc3ccc(OCC(=O)O)cc3)NC(=O)[C@H](Cc3ccc(-c4ccccc4)cc3)NC(=O)[C@H](Cc3ccc(OCC(=O)O)cc3)NC2=O)c1 (stereo partly drawn) [Compound 3774] ({CH2CO}-[Thr(3ξ)][Phe(4-CN)]D[Phe(3-Me)]Y(Carboxymethyl)[Bip]Y(Carboxymethyl)[Orn][dL][Dab][Cha][Thr(3ξ)]HC[Dab][AEEA][AEEA][Aun]-OH; thioether N-14)
14.4 | CC(C)C[C@H]1NC(=O)[C@H](CCCN)NC(=O)[C@H](CCC(=O)O)NC(=O)[C@H](Cc2ccc(-c3ccccc3)cc2)NC(=O)[C@H](C(C)C)NC(=O)[C@H](Cc2c[nH]c3ccccc23)NC(=O)[C@H](CC(=O)O)NC(=O)[C@H](Cc2ccc(OCC(=O)O)cc2)NC(=O)[C@H](CN)NC(=O)CSC[C@@H](C(=O)NCCOCCOCC(=O)N[C@@H](CCN)C(=O)NCCCCCCCCCCC(=O)O)NC(=O)[C@H](CCCCN)NC(=O)[C@H](C(C)C)NC(=O)[C@H](CC2CCCCC2)NC(=O)[C@H](CCN)NC1=O [Compound 2657] ({CH2CO}-[Dap]Y(Carboxymethyl)DWV[Bip]E[Orn][dL][Dab][Cha]VKC[AEEA][Dab][Aun]-OH; thioether N-14)

Source: patent US20260022142A1, “MACROCYCLIC IMMUNOMODULATORS” (Bristol-Myers Squibb Company, priority 2022, published 2026)
